{
  "source": "patent US20030153621A1",
  "about": "“Use of 13-hode as a regulator of vascular biocompatibility and an inhibitor of cell hyperplasia” (priority 2000, published 2003)",
  "key": {"[1]": {"details": "3.2 gm daily (20 capsules) for 30 days; cited from earlier work"}, "[2]": {"system": "Platelet/injured VW interactions", "details": "3.2 gm daily for 30 days; cited from earlier work"}, "[3]": {"details": "dose comparable to that used clinically; cited from earlier work"}, "[4]": {"system": "Platelet/injured VW interactions", "details": "dose comparable to that used clinically; cited from earlier work"}, "intimal SMC hyperplasia": {"system": "intimal SMC hyperplasia", "details": "cited from earlier work"}, "[5]": {"details": "human, in vivo; cited from earlier work"}, "[6]": {"assay": "Stability of 13-HODE in dosage forms (oil or ester carrier)", "format": "physicochemical", "details": "dissolved in a triglyceride oil carrier or an ester", "description": "A real problem is presented by the fact that active daily doses of 13-HODE are in the 50 to 1,000 μg/kg/day range. […] That translates into a […] dose for a 70 kg person. Since doses for humans are often considerably lower than doses for animals because of a weight/body surface area scaling, a daily dose of as little as 5 mg or less is really possible. Formulating an oily liquid is such small doses is a problem. It could be absorbed into tabletting materials and tabletted and coated, or micro-encapsulated by methods well known to those skilled in the art. […] Other triglyceride oils such as vegetable oil, including sunflower, safflower, soy, evening primrose, borage, coconut or palm oil, or cottonseed, rapeseed, olive, fish body or fish liver oils may all be used for this purpose. Particualrly useful esters for this purpose are esters of fatty acids with 16-26 carbon atoms and one or more double bonds in the chain."}, "[7]": {"assay": "Observation of hemorrhagic defect in the experimental animals", "format": "in vivo, rabbits", "details": "any of the experimental animals", "description": "(§1) New Zealand white rabbits (half males/half females; 2.5-2.9 kg) were used throughout. Rabbits were treated with 100, 400 or 1000 μg/kg/day of purified 13-HODE suspended in corn oil or ethyl-eicosapentaenoic acid (EPA), or with an equivolume of either suspending vehicle (total volume 1 ml) for 7 days. Serial blood samples were collected before, during and after treatment to assess the levels of 13-HODE in plasma. On day 7, the treatments were stopped. At that time, the rabbits were anaesthetised with a combination of Atravet, Ketamine, Vetrepham and glycopyrolate, given subcutaneously. Both carotid arteries of anaesthetised rabbits were isolated between 2 temporary ligatures, first by applying the proximal ligature, then allowing the blood to drain from the segment, and then applying the distal ligature. A 24-gauge angiocath attached to tubing filled with sterile saline and connected to a pressure manometer, was inserted into the isolated segment. Then the segment was filled with the saline to a pressure of 600 mm Hg which was maintained for 5 minutes. The pressure was relieved, and the angiocath and ligatures were removed, thereby allowing for blood flow restoration. Cessation of bleeding from the needle puncture site was achieved within 3 minutes without any manual manipulation. The incisions were sutured closed with 000 proline. […]"}, "[8]": {"assay": "Plasma 13-HODE levels in rabbits after oral 13-HODE", "format": "in vivo, New Zealand white rabbits", "description": "(§2) New Zealand white rabbits (half males/half females; 2.5-2.9 kg) were used throughout. Rabbits were treated with 100, 400 or 1000 μg/kg/day of purified 13-HODE suspended in corn oil or ethyl-eicosapentaenoic acid (EPA), or with an equivolume of either suspending vehicle (total volume 1 ml) for 7 days. Serial blood samples were collected before, during and after treatment to assess the levels of 13-HODE in plasma. On day 7, the treatments were stopped. At that time, the rabbits were anaesthetised with a combination of Atravet, Ketamine, Vetrepham and glycopyrolate, given subcutaneously. Both carotid arteries of anaesthetised rabbits were isolated between 2 temporary ligatures, first by applying the proximal ligature, then allowing the blood to drain from the segment, and then applying the distal ligature. A 24-gauge angiocath attached to tubing filled with sterile saline and connected to a pressure manometer, was inserted into the isolated segment. Then the segment was filled with the saline to a pressure of 600 mm Hg which was maintained for 5 minutes. The pressure was relieved, and the angiocath and ligatures were removed, thereby allowing for blood flow restoration. Cessation of bleeding from the needle puncture site was achieved within 3 minutes without any manual manipulation. The incisions were sutured closed with 000 proline. The rabbits were injected intramuscularly with Temgesic to minimize any pain and with 12.5 mg Baytril as an antibiotic, and then allowed to recover. This injury procedure results in endothelial denudation and the exposure of a thrombogenic surface within 1 hour of restoration of blood flow, followed by SMC proliferation and intimal hyperplasia, which plateaus at 4 weeks and which is sustained for ±12 weeks (Buchanan MR, Brister SJ: 1998; Buchanan MR et al. 1999).\n(§3) Two, four or twelve weeks later, the rabbits were re-anaesthetised and their injured carotid arteries were again isolated. Segments of injured and uninjured carotid artery were harvested and processed histologically to assess VW hyperplasia. Other VW segments and blood samples were collected and processed for VW and plasma 13-HODE levels."}, "[9]": {"assay": "Vessel wall 13-HODE levels in rabbits after oral 13-HODE", "format": "in vivo, New Zealand white rabbits", "description": "as §1"}, "[10]": {"system": "VW intimal hyperplasia of injured carotid arteries", "assay": "Intimal hyperplasia after carotid artery pressure injury in rabbits", "format": "in vivo, New Zealand white rabbits", "details": "for intimal hyperplasia: 1,000 μg/kg/day for 7 days", "description": "as §2, §3"}, "Sarcoma 180 tumors": {"system": "Sarcoma 180 tumors", "details": "given orally; cited from earlier work"}, "[11]": {"details": "suspended in ethyl-EPA, all treatment levels"}},
  "note": "Like-named read-outs stand apart in the source and are kept apart here.",
  "data": [
    {"smiles": "CCCCC/C=C\\C/C=C\\CCCCCCCC(=O)O", "note": "[linoleic acid, Octa-deca-9Z, 12Z-dienoic acid]", "values": [
      {"measurement": "increase of VW 13-HODE levels", "setting": "[1]", "result": 2, "unit": "fold"},
      {"measurement": "decrease of platelet/injured VW interactions", "setting": "[2]", "result": "> 2", "unit": "fold"}
    ]},
    {"smiles": "OCCN(CCO)c1nc(N2CCCCC2)c2nc(N(CCO)CCO)nc(N3CCCCC3)c2n1", "note": "[Persantine, dipyridamole]", "values": [
      {"measurement": "increase of VW 13-HODE", "setting": "[3]", "result": "30 to 50", "unit": "%"},
      {"measurement": "decrease of platelet/injured VW interactions", "setting": "[4]", "result": "> 2", "unit": "fold"},
      {"measurement": "SMC hyperplasia", "setting": "intimal SMC hyperplasia; 1 mg/kg/day for 7 days before injury, 4 weeks after VW injury", "result": "inhibited"},
      {"measurement": "platelet function", "setting": "intimal SMC hyperplasia; 1 mg/kg/day for 7 days", "result": "unchanged"}
    ]},
    {"smiles": "CC(=O)Oc1ccccc1C(=O)O", "note": "[ASA]", "values": [
      {"measurement": "overall risk reduction (stroke, myocardial infarction, transient ischemic attacks)", "setting": "[5]", "result": 25, "unit": "%"}
    ]},
    {"smiles": "CCCCCC(O)/C=C/C=C\\CCCCCCCC(=O)O", "note": "(stereo not shown) [13-HODE, 13-hydroxyoctadeca-9Z, 11E-dienoic acid]", "values": [
      {"measurement": "stability of dosage form", "setting": "[6]", "result": "stable without degradation"},
      {"measurement": "hemorrhagic defect", "setting": "[7]", "result": "no detectable hemorrhagic defect"},
      {"measurement": "increase in the plasma 13-HODE levels", "setting": "[8]; 100 μg/kg/day oral, 7 days, suspended in corn oil", "result": "three-fold"},
      {"measurement": "time to significantly elevated 13-HODE level in cell-free plasma", "setting": "[8]; 1,000 μg/kg/day oral", "result": "≤ 3", "unit": "days"},
      {"measurement": "effect of increasing the dose on plasma 13-HODE levels", "setting": "[8]; 1,000 μg/kg/day vs 100 μg/kg/day, corn oil", "result": "no further effect"},
      {"measurement": "time 13-HODE level in cell-free plasma remained elevated", "setting": "[8]; 1,000 μg/kg/day, treatment stopped after 7 days", "result": 4, "unit": "weeks"},
      {"measurement": "time for plasma 13-HODE levels to return to almost control levels", "setting": "[8]; after 7 day oral treatment, corn oil", "result": "14 to 21", "unit": "days"},
      {"measurement": "absolute levels of plasma 13-HODE versus corn oil vehicle", "setting": "[8]; [11]", "result": "lower"},
      {"measurement": "VW 13-HODE levels", "setting": "[9]; suspended in corn oil, measured 28 days after stopping the treatment", "result": "dose-related increase"},
      {"measurement": "absolute levels of VW 13-HODE versus corn oil vehicle", "setting": "[9]; [11]", "result": "somewhat lower"},
      {"measurement": "intimal VW hyperplasia", "setting": "[10]; 100 μg/kg/day for 7 days, in corn oil or ethyl-EPA, p<0.001", "result": "significantly inhibited"},
      {"measurement": "intimal hyperplasia", "setting": "[10]; 2 weeks after injury, placebo 18%", "result": 8, "unit": "%"},
      {"measurement": "intimal hyperplasia", "setting": "[10]; 4 weeks after injury, placebo 38%", "result": 16, "unit": "%"},
      {"measurement": "intimal hyperplasia", "setting": "[10]; 12 weeks after injury", "result": "> 3", "unit": "%"}
    ]},
    {"smiles": "CCCCC/C=C\\C=C\\C(O)CCCCCCCC(=O)O", "note": "(stereo not shown) [9-HODE, 9-hydroxy-10(E)12(Z) octadecadienoic acid]", "values": [
      {"measurement": "minimum effective dose for inhibition of tumour growth rate", "setting": "Sarcoma 180 tumors", "result": 55, "unit": "mg/kg/day"}
    ]}
  ]
}
